We go through 8 compounds from patent publication US11104663B2 (priority 2017, dated 2021).

Structures are written as SMILES. Like-named read-outs stand apart in the source and are kept apart here.

Data set [1] is classed as physicochemical. The conditions noted are these: for d50: median particle size; for d10 / d90: particle size; for d10: 10th percentile; for d90: 90th percentile. How it is done:
The suspensions were sonicated in a bath or with a sonic probe prior to analysis to deagglomerate and form a homogeneous suspension. Particle size was analyzed by both light obscuration and laser diffraction methods.

Data set [2] can be described thus: Specific surface area analysis (BET). The conditions noted are these: for SSA: BET method.
The nature of the next data set: in vivo. The conditions noted are these: male, Sprague Dawley (CD), rat, lung.
For data set [3] the following is noted: rat, i.v. 5 mg/kg.
Setting [4] is: Example 1 processed vs raw material.

Regarding `Cl.O=C(O)c1cn(C2CC2)c2cc(N3CCNCC3)c(F)cc2c1=O` [Example 1 processed, 1-cyclopropyl-6-fluoro-4-oxo-7-(piperazin-1-yl)-1,4-dihydroquinoline-3-carboxylic acid hydrochloride salt], in data set [1] (setting [4]), the “% Change of d10” value was −90%, the “% Change of d50” value is recorded as −94% and the “% Change of d90” value is −94%. Moreover, in data set [1] (hydrochloride salt), the d50 was 1.37 μm, the d10 was determined as 0.61 μm and the d90 amounted to 3.64 μm. Besides, the SSA in data set [2] (hydrochloride salt) is reported as 19.42 m^2/g. The “% Change of SSA” value in data set [2] (setting [4]) is given as “+153%”.

Turning to `O=C(O)c1cn(C2CC2)c2cc(N3CCNCC3)c(F)cc2c1=O` [Ex. 2 ciprofloxacin, 1-cyclopropyl-6-fluoro-4-oxo-7-(piperazin-1-yl)-1,4-dihydroquinoline-3-carboxylic acid], in the data set “in vivo” (inhaled, 3 mg/kg), the concentration at 0.5 h worked out at 153000 ng/g, the concentration at 6 h stood at 48400 ng/g, the concentration at 12 h turned out to be 12800 ng/g and the concentration at 24 h turned out to be 607 ng/g.

Turning to `O=C(O)c1cn(C2CC2)c2cc(N3CCNCC3)c(F)cc2c1=O` [ciprofloxacin, reference compound], the Lung concentration result is recorded as “BQL*” in data set [3] (12 hours) and “BQL” in data set [3] (24 hours). Moreover, the concentration at 0.5 h in “in vivo” (iv, 5 mg/kg) came out at 843 ng/g. Also, in the data set “in vivo” (iv, 5 mg/kg), the concentration at 6 h worked out at 113 ng/g.

Regarding `Cl.O=C(O)c1cn(C2CC2)c2cc(N3CCNCC3)c(F)cc2c1=O` [Ciprofloxacin hydrochloride Raw material, 1-cyclopropyl-6-fluoro-4-oxo-7-(piperazin-1-yl)-1,4-dihydroquinoline-3-carboxylic acid hydrochloride salt, reference compound], in data set [1] (hydrochloride salt), the d50 is listed as 22.7 μm, the d10 stood at 6.05 μm and the d90 is on record as 56.0 μm. Moreover, in data set [2] (hydrochloride salt), the SSA is listed as 7.68 m^2/g.

For `O=C(O)c1cn(C2CC2)c2cc(N3CCNCC3)c(F)cc2c1=O` [Ciprofloxacin Raw material, 1-cyclopropyl-6-fluoro-4-oxo-7-(piperazin-1-yl)-1,4-dihydroquinoline-3-carboxylic acid, reference compound], in data set [1], the d50 turned out to be 14.8 μm, the d10 is reported as 1.44 μm and the d90 came out at 244 μm. In data set [2], this compound gave an SSA of 11.8 m^2/g.

In data set [1], `O=C(O)c1cn(C2CC2)c2cc(N3CCNCC3)c(F)cc2c1=O` [Example 2 processed Batch 1, 1-cyclopropyl-6-fluoro-4-oxo-7-(piperazin-1-yl)-1,4-dihydroquinoline-3-carboxylic acid] showed a d50 of 4.63 μm, a d10 of 1.62 μm and a d90 of 9.32 μm. Moreover, the SSA in data set [2] is listed as 7.68 m^2/g.

In data set [1], `O=C(O)c1cn(C2CC2)c2cc(N3CCNCC3)c(F)cc2c1=O` [Example 2 processed Batch 3, 1-cyclopropyl-6-fluoro-4-oxo-7-(piperazin-1-yl)-1,4-dihydroquinoline-3-carboxylic acid] yielded a d50 of 3.26 μm, a d10 of 1.19 μm and a d90 of 6.65 μm. For the same compound, the SSA in data set [2] turned out to be 12.9 m^2/g.

For `O=C(O)c1cn(C2CC2)c2cc(N3CCNCC3)c(F)cc2c1=O` [Example 2 processed Batch 2, 1-cyclopropyl-6-fluoro-4-oxo-7-(piperazin-1-yl)-1,4-dihydroquinoline-3-carboxylic acid], in data set [1], the d50 amounted to 5.57 μm, the d10 amounted to 1.79 μm and the d90 is reported as 13.3 μm. Further, in data set [2], the SSA is given as 14.3 m^2/g.
